Laboratory results reported in paper PMC7070906, “A Near-infrared Turn-on Fluorescent Sensor for Sensitive and Specific Detection of Albumin from Urine Samples” (Sensors (Basel, Switzerland), 2020).

Biological target: T1, human serum albumin (HSA) (Homo sapiens, UniProt P02768)
T1 construct: gene ALB
Experiment: fluorescence turn-on titration with HSA (one-site fit), Job's plot […], displacement assay
Type: binding

T1 sequence (P02768 25-609): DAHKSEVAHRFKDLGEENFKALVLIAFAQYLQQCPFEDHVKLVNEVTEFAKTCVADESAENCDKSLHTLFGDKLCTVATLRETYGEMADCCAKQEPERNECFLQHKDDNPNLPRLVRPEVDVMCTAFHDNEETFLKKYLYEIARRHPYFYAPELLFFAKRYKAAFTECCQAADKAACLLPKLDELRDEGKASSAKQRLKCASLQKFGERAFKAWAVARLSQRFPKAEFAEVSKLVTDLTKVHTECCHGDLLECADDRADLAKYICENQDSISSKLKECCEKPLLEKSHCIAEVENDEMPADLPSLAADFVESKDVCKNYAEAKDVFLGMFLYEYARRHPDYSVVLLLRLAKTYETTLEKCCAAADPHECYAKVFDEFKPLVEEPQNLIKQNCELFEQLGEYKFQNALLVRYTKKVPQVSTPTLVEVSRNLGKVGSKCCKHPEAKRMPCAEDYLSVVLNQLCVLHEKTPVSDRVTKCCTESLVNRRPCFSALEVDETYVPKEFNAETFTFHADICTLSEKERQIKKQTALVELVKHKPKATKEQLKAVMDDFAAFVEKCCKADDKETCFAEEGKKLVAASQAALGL

## CN(C)c1ccc(/C=C/C=C/C=C(\C#N)C(=O)c2cccc(Cl)c2)s1 [compound 5, (2E,4E,6E)-2-(3-chlorobenzoyl)-7-(5-(dimethylamino)thiophen-2-yl)hepta-2,4,6-trienenitrile]
  Kd: 15.4 ± 3.3 µM
